19 compounds from patent US10149839B2, “Chemical compounds” (AstraZeneca AB, priority 2016, dated 2018) can be followed below.

The nature of series [1]: Human plasma protein binding (equilibrium dialysis). Format: in vitro ADME. As to conditions: dialysis 18 hours. On the technique in general: In equilibrium dialysis free small molecules cross a membrane that holds back macromolecules.
A short description of series [2]: Thermodynamic solubility (shake flask). The class given is physicochemical. As to conditions: aqueous phosphate buffer pH 7.4, 24 hours.
Another series can be described thus: physchem. The conditions noted are these: 1-octanol/aqueous buffer, pH 7.4.
Series [3] has as its target Estrogen Receptor (ERα) in MCF-7 cells (Homo sapiens (Human), UniProt P03372). Kind of series: MCF-7 ER down-regulation assay (immuno-fluorescence). Format: cell-based. The conditions noted are these: for % downregulation: shown in brackets where not >90%.
[4] abbreviates: aqueous phosphate buffer, 25 °C, pH 7.4, aqueous buffer, thermodynamic from solid.

One may read the solubility as how much of the substance goes into solution per volume. A high value points to a readily soluble substance. A word on the logD: it is lipophilicity at a set pH, counting ionised and neutral species. One may read the IC50 as the point on the concentration scale where inhibition reaches its midpoint. The low end stands for higher potency, the high end for lower potency.

Each structure is given as a SMILES string. In brackets after ≈: the same amount, converted by molar mass. Where only a bound is given, the exact number is not on record here.

Estrogen Receptor (ERα) in MCF-7 cells, sequence (P03372 whole entry): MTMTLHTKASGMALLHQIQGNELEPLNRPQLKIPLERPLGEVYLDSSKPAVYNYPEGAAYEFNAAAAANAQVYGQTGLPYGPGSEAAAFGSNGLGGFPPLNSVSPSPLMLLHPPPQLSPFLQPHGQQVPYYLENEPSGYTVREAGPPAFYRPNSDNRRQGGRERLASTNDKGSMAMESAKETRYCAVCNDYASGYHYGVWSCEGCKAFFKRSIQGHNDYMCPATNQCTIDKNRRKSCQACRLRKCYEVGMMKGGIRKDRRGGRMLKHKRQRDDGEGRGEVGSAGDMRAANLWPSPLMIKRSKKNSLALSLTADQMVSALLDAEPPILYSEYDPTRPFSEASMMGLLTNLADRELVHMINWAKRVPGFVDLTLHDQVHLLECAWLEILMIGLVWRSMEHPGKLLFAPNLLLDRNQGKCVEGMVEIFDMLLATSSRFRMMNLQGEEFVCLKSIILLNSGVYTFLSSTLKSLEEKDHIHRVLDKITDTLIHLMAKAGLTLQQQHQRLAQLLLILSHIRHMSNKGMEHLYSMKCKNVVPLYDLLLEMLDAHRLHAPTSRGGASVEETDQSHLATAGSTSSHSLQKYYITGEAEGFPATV

In the case of `C[C@@H]1Cc2c([nH]c3ccccc23)[C@@H](c2cnc(OCCNCCCF)cn2)N1CC(F)(F)CO` [Example 69, 2,2-difluoro-3-((1S,3R)-1-(5-(2-((3-fluoropropyl)amino)ethoxy)pyrazin-2-yl)-3-methyl-1,3,4,9-tetrahydro-2H-pyrido[3,4-b]indol-2-yl)propan-1-ol], in series [1], the “Human plasma protein binding (% free)” value came to 15 % free. Besides, the solubility at 24 h in series [2] (setting [4]) stood at 820 µM (≈ 392 µg/mL). The compound further registered a logD in “physchem” of 2. Further, the IC50 in series [3] (18-22 hours incubation) came out at 0.54 nM.
Taken in the same sequence, the figures for `C[C@@H]1Cc2c([nH]c3ccccc23)[C@@H](c2c(F)cc(OCC(CO)NCCCF)cc2F)N1CC(C)(C)F` (stereo partly drawn) [Example 20, 3-(3,5-difluoro-4-((1R,3R)-2-(2-fluoro-2-methylpropyl)-3-methyl-2,3,4,9-tetrahydro-1H-pyrido[3,4-b]indol-1-yl)phenoxy)-2-((3-fluoropropyl)amino)propan-1-ol] were below 0.30 % free, 18 µM (≈ 9.39 µg/mL), above 3.9 and 0.26 nM.
With `COc1cc(NCCNCCCF)ccc1[C@@H]1c2[nH]c3ccccc3c2C[C@@H](C)N1CC(F)(F)CO` [Example 59, 2,2-difluoro-3-((1R,3R)-1-(4-((2-((3-fluoropropyl)amino)ethyl)amino)-2-methoxyphenyl)-3-methyl-1,3,4,9-tetrahydro-2H-pyrido[3,4-b]indol-2-yl)propan-1-ol], in series [1], the “Human plasma protein binding (% free)” value is 2.8 % free. The compound further gave a solubility at 24 h in series [2] (setting [4]) of 853 µM (≈ 430 µg/mL). In the series “physchem”, the logD turned out to be 2.9. This compound had an IC50 in series [3] (18-22 hours incubation) of 0.25 nM.
Take `COc1cc(NCCNCCCF)ncc1[C@@H]1c2[nH]c3ccccc3c2C[C@@H](C)N1CC1(F)COC1` [Example 66, N1-(5-((1R,3R)-2-((3-fluorooxetan-3-yl)methyl)-3-methyl-2,3,4,9-tetrahydro-1H-pyrido[3,4-b]indol-1-yl)-4-methoxypyridin-2-yl)-N2-(3-fluoropropyl)ethane-1,2-diamine]: in series [1], the “Human plasma protein binding (% free)” value turned out to be 20 % free. Moreover, the solubility at 24 h in series [2] (setting [4]) was above 1000 µM. For the same compound, the logD in the series “physchem” amounted to 2. In series [3] (18-22 hours incubation), the IC50 came out at 1 nM.
Taken in the same sequence, the figures for `C[C@@H]1Cc2c([nH]c3ccccc23)[C@@H](c2ccc(OCCNCCCF)nc2)N1CC1(F)COC1` [Example 34, 3-fluoro-N-(2-((5-((1R,3R)-2-((3-fluorooxetan-3-yl)methyl)-3-methyl-2,3,4,9-tetrahydro-1H-pyrido[3,4-b]indol-1-yl)pyridin-2-yl)oxy)ethyl)propan-1-amine] were 11 % free, 787 µM (≈ 370 µg/mL), 2.5 and 6.2 nM.
On to `COc1nc(OCCNCCCF)ccc1[C@@H]1c2[nH]c3ccccc3c2C[C@@H](C)N1CC(C)(F)F` [Example 77, N-(2-((5-((1R,3R)-2-(2,2-difluoropropyl)-3-methyl-2,3,4,9-tetrahydro-1H-pyrido[3,4-b]indol-1-yl)-6-methoxypyridin-2-yl)oxy)ethyl)-3-fluoropropan-1-amine], for which the “Human plasma protein binding (% free)” value in series [1] is recorded as 0.19 % free. For the same compound, the solubility at 24 h in series [2] (setting [4]) was found to be 108 µM (≈ 53 µg/mL). In the series “physchem”, the logD was above 3.6. For the same compound, half-maximal inhibition in series [3] (18-22 hours incubation) (IC50) required 0.71 nM. In addition, the “% downregulation” value in series [3] was “(85%)”.
Take `C[C@@H]1Cc2c([nH]c3ccccc23)[C@@H](c2ccc(OCCNCCCF)cn2)N1CC1(F)COC1` [Example 32, 3-fluoro-N-(2-((6-((1S,3R)-2-((3-fluorooxetan-3-yl)methyl)-3-methyl-2,3,4,9-tetrahydro-1H-pyrido[3,4-b]indol-1-yl)pyridin-3-yl)oxy)ethyl)propan-1-amine]: the “Human plasma protein binding (% free)” value in series [1] is listed as 16 % free. Besides, the solubility at 24 h in series [2] (setting [4]) was 980 µM (≈ 461 µg/mL). The compound also came in with a logD in “physchem” of 2.1. In series [3] (18-22 hours incubation), this compound registered an IC50 of 41 nM.
For the compound `C[C@@H]1Cc2c([nH]c3ccccc23)[C@@H](c2ccc(OCCNCCCF)cc2)N1CC(F)CF` (single isomer, unassigned) [Example 25], the “Human plasma protein binding (% free)” value in series [1] worked out at 1.6 % free. For the same compound, in series [2] (25° C.), the solubility at 24 h was found to be 135 µM (≈ 62 µg/mL). For the same compound, the logD in “physchem” amounted to 3. Further, in series [3] (18-22 hours incubation), the IC50 worked out at 0.36 nM.
On to `COc1cc(OCCNCCCF)ncc1[C@@H]1c2[nH]c3ccccc3c2C[C@@H](C)N1CC1(F)CC1` [Example 37, 3-fluoro-N-(2-((5-((1R,3R)-2-((1-fluorocyclopropyl)methyl)-3-methyl-2,3,4,9-tetrahydro-1H-pyrido[3,4-b]indol-1-yl)-4-methoxypyridin-2-yl)oxy)ethyl)propan-1-amine], for which, in series [1], the “Human plasma protein binding (% free)” value is recorded as 8.5 % free. The solubility at 24 h in series [2] (setting [4]) was found to be 877 µM (≈ 425 µg/mL). The compound also showed a logD in the series “physchem” of 2.4. In series [3] (18-22 hours incubation), this compound registered an IC50 of 0.51 nM.
In the case of `Cc1cc(OCCNCCCF)ncc1[C@@H]1c2[nH]c3ccccc3c2C[C@@H](C)N1CC(F)F` [Example 63, N-(2-((5-((1R,3R)-2-(2,2-difluoroethyl)-3-methyl-2,3,4,9-tetrahydro-1H-pyrido[3,4-b]indol-1-yl)-4-methylpyridin-2-yl)oxy)ethyl)-3-fluoropropan-1-amine], the “Human plasma protein binding (% free)” value in series [1] was found to be 1.4 % free. In addition, the solubility at 24 h in series [2] (setting [4]) is 268 µM (≈ 123 µg/mL). The compound also came in with a logD in the series “physchem” above 3.6. It took 1.8 nM to reach half-maximal inhibition in series [3] (18-22 hours incubation) (IC50).
The corresponding values for `C[C@@H]1Cc2c([nH]c3ccccc23)[C@@H](c2ncc(OCCNCCCF)cn2)N1CC(C)(C)F` [Example 39, 3-fluoro-N-(2-((2-((1S,3R)-2-(2-fluoro-2-methylpropyl)-3-methyl-2,3,4,9-tetrahydro-1H-pyrido[3,4-b]indol-1-yl)pyrimidin-5-yl)oxy)ethyl)propan-1-amine] are 7.2 % free, 328 µM (≈ 150 µg/mL), 2.5 and 230 nM.
Consider `C[C@@H]1Cc2c([nH]c3ccccc23)[C@@H](c2cnc(OCCNCCCF)cc2F)N1CC1(F)COC1` [Example 62, 3-fluoro-N-(2-((4-fluoro-5-((1R,3R)-2-((3-fluorooxetan-3-yl)methyl)-3-methyl-2,3,4,9-tetrahydro-1H-pyrido[3,4-b]indol-1-yl)pyridin-2-yl)oxy)ethyl)propan-1-amine], for which the “Human plasma protein binding (% free)” value in series [1] worked out at 13 % free. The compound further yielded a solubility at 24 h in series [2] (setting [4]) of 587 µM (≈ 287 µg/mL). Also, the logD in the series “physchem” was 2.7. In series [3] (18-22 hours incubation, read-out: ER down regulation IC50 value), the DC50 was 3.9 nM.
Turning to `COc1cc(NCCNCCCF)ccc1[C@@H]1c2[nH]c3ccccc3c2C[C@@H](C)N1CC1(F)CC1` [Example 60, N1-(4-((1R,3R)-2-((1-fluorocyclopropyl)methyl)-3-methyl-2,3,4,9-tetrahydro-1H-pyrido[3,4-b]indol-1-yl)-3-methoxyphenyl)-N2-(3-fluoropropyl)ethane-1,2-diamine], the “Human plasma protein binding (% free)” value in series [1] stood at 7.8 % free. In series [2] (setting [4]), the solubility at 24 h was determined as 760 µM (≈ 367 µg/mL). The compound also came in with a logD in “physchem” of 2.9. Moreover, the IC50 in series [3] (18-22 hours incubation) was 1.8 nM.
In the case of `C[C@@H]1Cc2c([nH]c3ccccc23)[C@@H](c2cnc(OCCNCCCF)cn2)N1CC(F)F` [Example 70, N-(2-((5-((1S,3R)-2-(2,2-difluoroethyl)-3-methyl-2,3,4,9-tetrahydro-1H-pyrido[3,4-b]indol-1-yl)pyrazin-2-yl)oxy)ethyl)-3-fluoropropan-1-amine], the “Human plasma protein binding (% free)” value in series [1] is recorded as 11 % free. Further, the solubility at 24 h in series [2] (setting [4]) turned out to be 607 µM (≈ 272 µg/mL). In addition, the logD in the series “physchem” turned out to be 2.4. Moreover, the IC50 in series [3] (18-22 hours incubation) is 0.88 nM.
The corresponding values for `COc1cc(OCCNCCCF)ccc1[C@@H]1c2[nH]c3ccccc3c2C[C@@H](C)N1CC(F)(F)F` [Example 73, 3-fluoro-N-(2-(3-methoxy-4-((1R,3R)-3-methyl-2-(2,2,2-trifluoroethyl)-2,3,4,9-tetrahydro-1H-pyrido[3,4-b]indol-1-yl)phenoxy)ethyl)propan-1-amine] are 0.66 % free, 51 µM (≈ 25.2 µg/mL), above 3.2 and 0.094 nM.
Taken in the same sequence, the figures for `C[C@@H]1Cc2c([nH]c3ccccc23)[C@@H](c2cnc(NCCNCCCF)cn2)N1CC(F)F` [Example 71, N1-(5-((1S,3R)-2-(2,2-difluoroethyl)-3-methyl-2,3,4,9-tetrahydro-1H-pyrido[3,4-b]indol-1-yl)pyrazin-2-yl)-N2-(3-fluoropropyl)ethane-1,2-diamine] were 13 % free, above 1000 µM, 2.3 and 0.83 nM.
The corresponding values for `COc1cc(NCCNCCCF)ccc1[C@@H]1c2[nH]c3ccccc3c2C[C@@H](C)N1CC(F)F` [Example 61, N1-(4-((1R,3R)-2-(2,2-difluoroethyl)-3-methyl-2,3,4,9-tetrahydro-1H-pyrido[3,4-b]indol-1-yl)-3-methoxyphenyl)-N2-(3-fluoropropyl)ethane-1,2-diamine] are 1.3 % free, 24 µM (≈ 11.4 µg/mL), 3.4 and 0.24 nM.
On to `C[C@H](COc1ccc([C@@H]2c3[nH]c4ccccc4c3C[C@@H](C)N2CC2(F)COC2)cc1)NCCCF` [Example 28, 3-fluoro-N-((R)-1-(4-((1R,3R)-2-((3-fluorooxetan-3-yl)methyl)-3-methyl-2,3,4,9-tetrahydro-1H-pyrido[3,4-b]indol-1-yl)phenoxy)propan-2-yl)propan-1-amine], for which the “Human plasma protein binding (% free)” value in series [1] was determined as 2.7 % free. The solubility at 24 h in series [2] (setting [4]) is 354 µM (≈ 171 µg/mL). In addition, the logD in “physchem” amounted to 2.9. In series [3] (18-22 hours incubation), this compound gave an IC50 of 11 nM. For the same compound, in series [3], the “% downregulation” value is “(48%)”.
For `C[C@@H]1Cc2c([nH]c3ccccc23)[C@@H](c2ccc(OCCNCCCF)cc2F)N1CC1(F)CC1` [Example 21, 3-fluoro-N-(2-(3-fluoro-4-((1R,3R)-2-((1-fluorocyclopropyl)methyl)-3-methyl-2,3,4,9-tetrahydro-1H-pyrido[3,4-b]indol-1-yl)phenoxy)ethyl)propan-1-amine], in series [1], the “Human plasma protein binding (% free)” value is on record as 2.1 % free. This compound registered a solubility at 24 h in series [2] (setting [4]) of 149 µM (≈ 70.3 µg/mL). The compound further returned a logD in “physchem” of 3.4. The compound also returned an IC50 in series [3] (18-22 hours incubation) of 0.48 nM.
